Like-named read-outs stand apart in the source and are kept apart here.
Assays:
[1] = target: T1, hKV10.1a (Homo sapiens, UniProt O95259); assay: Two-electrode voltage-clamp recordings of KV10.1 currents in Xenopus laevis oocytes; assay type: cell-based
T1 construct: expressed in transfected cells; host or cells: Xenopus laevis oocytes injected with cRNA transcribed from the hKV10.1a-pSGEM plasmid
T1 sequence (O95259 1-962 isoform O95259-2): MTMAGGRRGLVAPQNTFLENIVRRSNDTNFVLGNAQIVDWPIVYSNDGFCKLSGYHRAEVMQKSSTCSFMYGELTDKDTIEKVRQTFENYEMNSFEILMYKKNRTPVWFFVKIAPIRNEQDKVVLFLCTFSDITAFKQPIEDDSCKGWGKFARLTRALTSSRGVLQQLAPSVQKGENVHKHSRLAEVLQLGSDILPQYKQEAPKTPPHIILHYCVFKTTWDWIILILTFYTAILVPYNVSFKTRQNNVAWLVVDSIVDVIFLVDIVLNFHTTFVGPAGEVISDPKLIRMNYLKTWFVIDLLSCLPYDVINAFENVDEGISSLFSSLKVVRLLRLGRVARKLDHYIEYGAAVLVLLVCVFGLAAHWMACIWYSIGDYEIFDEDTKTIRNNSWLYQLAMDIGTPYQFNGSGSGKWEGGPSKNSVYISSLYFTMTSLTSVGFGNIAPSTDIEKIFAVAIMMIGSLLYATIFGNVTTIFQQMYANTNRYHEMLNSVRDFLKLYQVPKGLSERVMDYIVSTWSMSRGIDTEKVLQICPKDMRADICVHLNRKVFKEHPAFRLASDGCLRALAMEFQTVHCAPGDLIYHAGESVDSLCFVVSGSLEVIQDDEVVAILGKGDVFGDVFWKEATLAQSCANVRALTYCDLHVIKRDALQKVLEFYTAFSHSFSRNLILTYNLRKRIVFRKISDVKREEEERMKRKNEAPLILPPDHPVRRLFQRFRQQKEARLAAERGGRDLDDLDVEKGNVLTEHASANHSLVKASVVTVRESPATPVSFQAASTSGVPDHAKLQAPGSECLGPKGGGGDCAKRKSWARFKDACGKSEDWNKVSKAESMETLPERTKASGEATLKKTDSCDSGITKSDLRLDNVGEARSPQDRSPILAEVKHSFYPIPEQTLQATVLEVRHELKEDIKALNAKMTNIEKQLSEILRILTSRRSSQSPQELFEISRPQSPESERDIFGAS
From the text: For the expression of hKV10.1a (GeneBank accession number: NM_002238.3) in Xenopus oocytes, the hKV10.1a-pSGEM plasmid was linearized with SfiI (ThermoFisher Scientific, Waltham, Massachusetts, USA) and transcribed using the T7 mMESSAGE-mMACHINE transcription kit (Ambion®, Carlsbad, California, USA).
Stage V-VI Xenopus laevis (African clawed frog) oocytes were isolated by partial ovariectomy. Mature female animals were purchased from Nasco (Fort Atkinson, Wisconsin, USA) and were housed in the Aquatic Facility (KU Leuven) in compliance with the regulations of the European Union (EU) concerning the welfare of laboratory animals as declared in Directive 2010/63/EU. The use of Xenopus laevis was approved by the Animal Ethics Committee of the KU Leuven (Project nr. P038/2017). Prior to harvesting the oocytes, the animals were anesthetized by a 15-min submersion in 0.1% tricaine methanesulfonate (pH 7.0). Isolated oocytes were defolliculated with 1.5 mg/mL collagenase.
Defolliculated oocytes were injected with 4 nL of cRNA at a concentration of 1 ng/nL using a micro-injector (Drummond Scientific®, Broomall, Pennsylvania, USA). The oocytes were incubated in a solution containing (in mM): NaCl, 96; KCl, 2; CaCl2, 1.8; MgCl2, 2 and HEPES, 5 (pH 7.4), supplemented with 50 mg/L gentamycin sulfate.
Two-electrode voltage-clamp recordings were performed at room temperature (18–22°C) using a Geneclamp 500 amplifier (Molecular Devices, USA) controlled by a pClamp data acquisition system (Axon Instruments®, Union City, California, USA). Whole cell currents from oocytes were recorded 1–4 days after injection. Bath solution composition was (in mM): NaCl, 96; KCl, 2; CaCl2, 1.8; MgCl2, 2 and HEPES, 5 (pH 7.5). Voltage and current electrodes were filled with a 3 M solution of KCl in H2O. Resistances of both electrodes were kept between 0.5 and 1.5 MΩ. The elicited KV10.1 currents were filtered at 1 kHz and sampled at 2 kHz using a four-pole low-pass Bessel filter. Leak subtraction was performed using a -P/4 protocol. KV10.1 currents were evoked by 2-s depolarizing pulses to 0 mV from a holding potential of -90 mV unless otherwise indicated.
All electrophysiological data are presented as means ± S.E.M of n ≥ 3 independent experiments unless otherwise indicated. All data was analyzed using pClamp Clampfit 10.4 (Molecular Devices®, Downingtown, Pennsylvania, USA) and OriginPro 8 (Originlab®, Northampton, Massachusetts, USA) or GraphPad Prism 5 software (GraphPad Software, Inc., San Diego, California, USA).

[2] = system: Xenopus oocytes; assay: 48-h incubation of Xenopus oocytes, oocyte quality; assay type: cell-based, Xenopus laevis; details: 10 μM
From the text: A dose-dependent antiproliferative and cytotoxic effect was not only observed on the KV10.1-expressing cells but also on the control cell lines.

remaining current, % of the control current ([1]; 10 μM added during 20-s continuous step to 30 mV): approximately 50%
reversibility of KV10.1 inhibition ([1]; 10 μM, wash-out): reversible
effect on KV10.1 inactivation (two-pulse protocol) ([1]; 10 μM, 1.5-s prepulse -140 mV to 50 mV, 0.5-s test pulse to 30 mV): an apparent inactivation is induced
inhibition at 10 µM ([1]; 10 μM, 2-s depolarizing pulses to 0 mV from -90 mV, read-out: KV10.1 current inhibition): 51 ± 3%
shift of activation curve (ΔV1/2) to more negative potentials ([1]; 10 μM, ND96 (2 mM extracellular K+), Boltzmann fit): 21.0 ± 1.6 mV
half-maximal voltage of activation (V1/2) in presence of compound ([1]; 10 μM, ND96 (2 mM extracellular K+), control V1/2 = 23.2 ± 0.4 mV): 2.1 ± 0.4 mV
slope factor k of activation curve in presence of compound ([1]; 10 μM, ND96, control k = 15.5 ± 0.4): 13.8 ± 0.3
time constant (τ) of wash-out ([1]; 10 μM, one phase association equation): ~ 20 s
exponential time constant (τ) of wash-in ([1]; 10 μM, one phase decay equation): 5.3 s
inhibition at 10 µM ([1]; 10 μM, oocyte clamped at -90 mV for 10 minutes, then 2-s pulse to 0 mV, read-out: KV10.1 current inhibition after clamping at -90 mV): 53 ± 4%
KV10.1 current inhibition ([1]; 40 μM, extracellular perfusion, average ± SEM): 86.9 ± 1.3%
inhibition at 40 µM ([1]; 40 μM, extracellular perfusion, average ± SEM, read-out: KV10.1 current inhibition): 87 ± 1%
Hill coefficient ([1]; 8 concentrations 0.04 μM to 80 μM, logistic dose-response fit): 1.6 ± 0.3
IC50 ([1]; 8 concentrations 0.04 μM to 80 μM, logistic dose-response fit, read-out: IC50 of KV10.1 current inhibition): 7.7 ± 1 µM
competition plot with mibefradil ([1]; mixtures p*10 μM 5 and (1-p)*10 μM mibefradil, 7 ratios): compete for the same binding site
SMILES: COc1ccc(C(=O)NCCc2cc(Br)c(OCCCN(C)C)c(Br)c2)cc1Cl [Compound 5, 3-Chloro-N-[3,5-dibromo-4-[3-(dimethylamino)propoxy]phenethyl]-4-methoxybenzamide]
oocyte quality (visual and electrophysiological observation) [2]: did not result in noticeable deterioration of the oocyte quality

From PMC5722316, “Synthesis of novel purpurealidin analogs and evaluation of their effect on the cancer-relevant potassium channel KV10.1” (PLoS ONE, 2017)
